Test results taken from ChEMBL document CHEMBL1201862, “PubChem BioAssay data set” (2004).
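Five concentrations, 48 hours, 96-well plates. Here, GI50 denotes the concentration required for 50% inhibition of growth.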 Activity calls are given as the source filed them. No stated cut-off is given here; in the data, active = GI50 up to about 1.1 µM and inactive = higher.

Tests used:
Test in all cases: NCI tumour cell line growth inhibition, 48 h
786-0 = test system: 786-0
A498 = test system: A498
A549 = test system: A549
ACHN = test system: ACHN
BT-549 = test system: BT-549
CAKI-1 = test system: CAKI-1
CCRF-CEM = test system: CCRF-CEM
COLO 205 = test system: COLO 205
DU-145 = test system: DU-145
EKVX = test system: EKVX
HCC 2998 = test system: HCC 2998
HCT-116 = test system: HCT-116
HCT-15 = test system: HCT-15
HL-60 = test system: HL-60
HOP-62 = test system: HOP-62
HT-29 = test system: HT-29
Hs-578T = test system: Hs-578T
IGROV-1 = test system: IGROV-1
K562 = test system: K562
KM12 = test system: KM12
LOX IMVI = test system: LOX IMVI
M14 = test system: M14
MCF7 = test system: MCF7
MDA-MB-231 = test system: MDA-MB-231
MDA-MB-435 = test system: MDA-MB-435
MDA-N = test system: MDA-N
MOLT-4 = test system: MOLT-4
Malme-3M = test system: Malme-3M
NCI-H23 = test system: NCI-H23
NCI-H460 = test system: NCI-H460
NCI/ADR-RES = test system: NCI/ADR-RES
OVCAR-3 = test system: OVCAR-3
OVCAR-4 = test system: OVCAR-4
OVCAR-5 = test system: OVCAR-5
OVCAR-8 = test system: OVCAR-8
PC-3 = test system: PC-3
RPMI-8226 = test system: RPMI-8226
RXF 393 = test system: RXF 393
SF-268 = test system: SF-268
SF-295 = test system: SF-295
SF-539 = test system: SF-539
SK-MEL-28 = test system: SK-MEL-28
SK-MEL-2 = test system: SK-MEL-2
SK-MEL-5 = test system: SK-MEL-5
SK-OV-3 = test system: SK-OV-3
SN12C = test system: SN12C
SNB-19 = test system: SNB-19
SNB-75 = test system: SNB-75
SR = test system: SR
SW-620 = test system: SW-620
T47D = test system: T47D
TK-10 = test system: TK-10
U-251 = test system: U-251
UACC-257 = test system: UACC-257
UACC-62 = test system: UACC-62
UO-31 = test system: UO-31
HOP-92 = test system: HOP-92
NCI-H226 = test system: NCI-H226
NCI-H522 = test system: NCI-H522

Cc1ccc(-c2cc(C(F)(F)F)nn2-c2ccc(S(N)(=O)=O)cc2)cc1 [CELECOXIB]
GI50 (786-0): 37.1 µM (inactive) | GI50 (A498): 15.1 µM (inactive) | GI50 (A549): 14.4 µM (inactive) | GI50 (ACHN): 17.5 µM (inactive) | GI50 (BT-549): 18.5 µM (inactive) | GI50 (CAKI-1): 19.6 µM (inactive) | GI50 (CCRF-CEM): 14 µM (inactive) | GI50 (COLO 205): 16.1 µM (inactive) | GI50 (DU-145): 16.3 µM (inactive) | GI50 (EKVX): 17.9 µM (inactive) | GI50 (HCC 2998): 15.7 µM (inactive) | GI50 (HCT-116): 55 µM (inactive) | GI50 (HCT-15): 15.9 µM | GI50 (HL-60): 14.8 µM (inactive) | GI50 (HOP-62): 67.9 µM (inactive) | GI50 (HT-29): 16.5 µM (inactive) | GI50 (Hs-578T): 18.5 µM (inactive) | GI50 (IGROV-1): 15.4 µM (inactive) | GI50 (K562): 10.1 µM (inactive) | GI50 (KM12): 15.1 µM (inactive) | GI50 (LOX IMVI): 18.2 µM (inactive) | GI50 (M14): 67.9 µM (inactive) | GI50 (MCF7): 17.5 µM (inactive) | GI50 (MDA-MB-231): 15.6 µM (inactive) | GI50 (MDA-MB-435): 17.5 µM (inactive) | GI50 (MDA-N): 17.1 µM (inactive) | GI50 (MOLT-4): 17.3 µM (inactive) | GI50 (Malme-3M): 18.6 µM (inactive) | GI50 (NCI-H23): 17.1 µM (inactive) | GI50 (NCI-H460): 15.8 µM (inactive) | GI50 (NCI/ADR-RES): 16.2 µM (inactive) | GI50 (OVCAR-3): 17.6 µM (inactive) | GI50 (OVCAR-4): 12.4 µM (inactive) | GI50 (OVCAR-5): 19.7 µM (inactive) | GI50 (OVCAR-8): 19.7 µM (inactive) | GI50 (PC-3): 13.4 µM (inactive) | GI50 (RPMI-8226): 3.85 µM (inactive) | GI50 (RXF 393): 17.1 µM (inactive) | GI50 (SF-268): 16.9 µM (inactive) | GI50 (SF-295): 16.6 µM (inactive) | GI50 (SF-539): 18.1 µM (inactive) | GI50 (SK-MEL-28): 17.6 µM (inactive) | GI50 (SK-MEL-2): 16.1 µM (inactive) | GI50 (SK-MEL-5): 14.8 µM (inactive) | GI50 (SK-OV-3): 18.3 µM (inactive) | GI50 (SN12C): 15.6 µM (inactive) | GI50 (SNB-19): 18 µM (inactive) | GI50 (SNB-75): 15.6 µM (inactive) | GI50 (SR): 16.1 µM (inactive) | GI50 (SW-620): 16.9 µM (inactive) | GI50 (T47D): 16.8 µM (inactive) | GI50 (TK-10): 18.8 µM (inactive) | GI50 (U-251): 16.1 µM (inactive) | GI50 (UACC-257): 19.7 µM (inactive) | GI50 (UACC-62): 15.4 µM (inactive) | GI50 (UO-31): 14.8 µM (inactive)

CN(Cc1ccccc1)Cn1ccnc1
GI50 (786-0): 72.9 µM (inactive) | GI50 (A498): > 91.6 µM (inactive) | GI50 (A549): > 100 µM (inactive) | GI50 (ACHN): > 100 µM (inactive) | GI50 (BT-549): > 100 µM (inactive) | GI50 (CAKI-1): > 100 µM (inactive) | GI50 (CCRF-CEM): 32.2 µM (inactive) | GI50 (COLO 205): 33.5 µM (inactive) | GI50 (DU-145): > 100 µM (inactive) | GI50 (EKVX): > 85.1 µM (inactive) | GI50 (HCT-116): 39.4 µM (inactive) | GI50 (HCT-15): 59.4 µM | GI50 (HL-60): > 38.5 µM (inactive) | GI50 (HOP-62): > 100 µM (inactive) | GI50 (HOP-92): 25.7 µM (inactive) | GI50 (HT-29): 29 µM (inactive) | GI50 (Hs-578T): > 100 µM (inactive) | GI50 (IGROV-1): 36.2 µM (inactive) | GI50 (K562): 34.7 µM (inactive) | GI50 (KM12): > 100 µM (inactive) | GI50 (LOX IMVI): > 88.3 µM (inactive) | GI50 (M14): 20.5 µM (inactive) | GI50 (MCF7): 41 µM (inactive) | GI50 (MDA-MB-231): > 56 µM (inactive) | GI50 (MDA-MB-435): 51.4 µM (inactive) | GI50 (MDA-N): 76 µM (inactive) | GI50 (MOLT-4): 46.5 µM (inactive) | GI50 (Malme-3M): 24.9 µM (inactive) | GI50 (NCI-H226): > 100 µM (inactive) | GI50 (NCI-H23): > 85.5 µM (inactive) | GI50 (NCI-H460): 40.3 µM (inactive) | GI50 (NCI-H522): 89.3 µM (inactive) | GI50 (NCI/ADR-RES): > 100 µM (inactive) | GI50 (OVCAR-3): > 100 µM (inactive) | GI50 (OVCAR-4): > 100 µM (inactive) | GI50 (OVCAR-5): > 100 µM (inactive) | GI50 (OVCAR-8): > 100 µM (inactive) | GI50 (PC-3): > 75.9 µM (inactive) | GI50 (RPMI-8226): 29.2 µM (inactive) | GI50 (RXF 393): > 100 µM (inactive) | GI50 (SF-268): > 100 µM (inactive) | GI50 (SF-295): > 82.6 µM (inactive) | GI50 (SF-539): > 100 µM (inactive) | GI50 (SK-MEL-28): 34.1 µM (inactive) | GI50 (SK-MEL-2): > 100 µM (inactive) | GI50 (SK-MEL-5): 37.9 µM (inactive) | GI50 (SK-OV-3): > 100 µM (inactive) | GI50 (SN12C): 95.1 µM (inactive) | GI50 (SNB-19): > 100 µM (inactive) | GI50 (SNB-75): > 100 µM (inactive) | GI50 (SR): 26.2 µM (inactive) | GI50 (SW-620): > 100 µM (inactive) | GI50 (T47D): > 60.7 µM (inactive) | GI50 (TK-10): > 100 µM (inactive) | GI50 (U-251): > 71 µM (inactive) | GI50 (UACC-257): 22.4 µM (inactive) | GI50 (UACC-62): > 100 µM (inactive) | GI50 (UO-31): 54.7 µM (inactive)
